SMILES strings stand for the structures.

In assay [1] the test system is melanoma cells. The experiment in a line: Apoptosis (annexin V staining and caspase activity). Type of assay: cell-based, human. The conditions noted are these: 0.5 µM and 1 µM, 24 hrs. The procedure:
The rate of apoptosis was measured using the Dead Cell Apoptosis Kit with Alexa Fluor® 488 annexin V and propidium iodide (Invitrogen, V13241). Phosphatidylserine was visualized by flow cytometry following the manufacturer’s instructions. The assay was done in response to SAB298 (0.5 µM and 1 µM, 24 hrs), compared to DMSO (negative control) or camptothecin (10 µM), as a positive control. In addition, we used the 96-well colorimetric Caspase 3 Assay kit (Millipore Sigma) to measure caspase activity in response to increasing concentrations of SAB298, and western blotting for apoptotic markers, such as cleaved PARP. […]
www.oncotarget.com Oncotarget, Supplementary Materials
A novel anti-melanoma src-family kinase inhibitor
Supplementary Figure 1: Apoptosis in response to SAB298. […]
melanoma cells treated for 24 hrs with SAB298 (0.5 and 1 µM). (C) A bar plot showing the differential levels of annexin positive cells in response to SAB298. (D) Caspase activity in response to SAB298 of four different cell lines (YUSIV, YUSIK, YUGASP and YUSEEP).
(1 picture or pasted object on this page, not shown here)

In assay [2] the target is native kinases in YUSIV and YUSIK lysates. Briefly: KiNativ in situ kinase profiling (summary over kinases). The conditions noted are these: mTOR, EGFR, LCK and MEK1; read-out: IC50, range over kinases. Type of assay: binding, human. As for the experimental part: (§1) The effect of SAB298 on a panel of 36 recombinant kinases, was screed with the radioisotope filter binding assay employing 10 concentrations of the compound with 10 µM ATP (Reaction Biology Corporation, Malvern, PA). In addition, we tested the endogenous kinome response to SAB298 (0.05 µM, 0.5 µM and 5 µM) in lysates from two melanoma cell lines (YUSIV and YUSIK) employing the KiNativ® platform (ActivX Biosciences Inc., La Jolla, CA). KiNativ® is a robust, high performance mass spectrometry (LC-MS^2) assay that uses biotinylated probes to measure relevant changes in the affinity to the ATP-binding sites of 205 native kinases as a function of cellular context. We also validated SAB298 effect on the activity of SRC-family kinases by probing for phosphorylated Y416, the marker of activated SFKs, with anti-IEDNEpYTAR antibodies (also known as Y419, #2101, Cell Signaling Technology, Beverly, MA). In some cases the cells were incubated overnight with 20 µM proteasome inhibitor MG-132 (CAS 133407-82-6, Millipore Sigma, Burlington, MA) to rescue degradation.

Assay [3] concerns YUSIK melanoma tumors. The experiment in a line: In vivo tumor growth, YUSIK melanoma xenograft. The conditions noted are these: YUSIK tumor bearing nude mice, 20 mg/kg daily intraperitoneal from day 12, vs solvent control; 6 mice; p = 0.0006. As for the experimental part: All procedures involving animals were approved by the Institutional Animal Care and Use Committee of Yale University. YUSIK melanoma cells were grown to 80% confluency in 150 cm^2 flasks, detached by trypsinization, washed with PBS, and cell pellets were resuspended in 1:1 mixture of PBS and matrigel (BD Bioscience Cat #354234) to sustain cell viability. The cells (4 × 10^6/100 µl) were injected subcutaneously in the back flank of six weeks old female athymic Nude-Foxn1nu (nu/nu) mice (Charles River Laboratories, Wilmington, MA), and tumors were measuring daily with a caliper (length, width, and depth). When tumors reached palpable size (between 25–40 mm^3), the animals were randomized by tumor size and body weigh into two groups and were daily injected intraperitoneally with SAB298 (batch #AU0588-91, Sabila Biosciences LLC, 5 Overlook Road, New City, New York, 10956) or vehicle as controls (N = 6/each). […] The vehicle contained the same reagents but without SAB298.

Assay [4] addresses T1, WEE1 (Homo sapiens, UniProt P30291).
T1 construct: purchased Reaction Biology Corporation
Briefly: Radioisotope filter activity assay, recombinant kinase. The settings on record: 10 point dose response, 10 µM ATP. Type of assay: biochemical. The procedure: as §1
(§2) Supplemntary Table 3: Radioisotope filter activity assay Tests for SAB298 target protein
(§3) *These are results from 10 point dose response test employed with 10 µM ATP. […]
(§4) SRC TRCN0000195339 3ʹUTR […]
(§5) YES TRCN0000001611 CDS […]
(§6) FYN TRCN0000003099 CDS […]
(§7) LY N TRCN0000230901 CDS […]

Assay [5] has as its target T2, IGF1R (Homo sapiens, UniProt P08069).
T2 construct: purchased Reaction Biology Corporation
The assay is described as above. Type of assay: biochemical. The settings on record: 10 point dose response, 10 µM ATP. As for the experimental part: as §1, §2, §3, §4, §5, §6, §7

Assay [6] concerns the target T3, BTK (Homo sapiens, UniProt Q06187).
T3 construct: purchased Reaction Biology Corporation
Described as above. Type of assay: biochemical. The conditions noted are these: 10 point dose response, 10 µM ATP. The procedure: as §1, §2, §3, §4, §5, §6, §7

Assay [7] deals with T4, RAF1 (Homo sapiens, UniProt P04049).
T4 construct: purchased Reaction Biology Corporation
The description is as above. Type of assay: biochemical. The settings on record: 10 point dose response, 10 µM ATP. The procedure:
as §1, §2, §3, §4, §5, §6, §7

Assay [8] concerns the target T5, BRK (Homo sapiens, UniProt Q13882).
T5 construct: purchased Reaction Biology Corporation
The assay is described as above. Type of assay: biochemical. The settings on record: 10 point dose response, 10 µM ATP. The procedure:
as §1, §2, §3, §4, §5, §6, §7

In assay [9] the target is T6, FYN (Homo sapiens, UniProt P06241).
T6 construct: purchased Reaction Biology Corporation
The description is as above. Type of assay: biochemical. The settings on record: 10 point dose response, 10 µM ATP. The procedure:
as §1, §2, §3, §4, §5, §6, §7

The target in assay [10] is T7, FLT3 (Homo sapiens, UniProt P36888).
T7 construct: purchased Reaction Biology Corporation
The description is as above. Type of assay: biochemical. The conditions noted are these: 10 point dose response, 10 µM ATP. As for the experimental part: as §1, §2, §3, §4, §5, §6, §7

In assay [11] the target is T8, FGR (Homo sapiens, UniProt P09769).
T8 construct: purchased Reaction Biology Corporation
The assay is described as above. Type of assay: biochemical. The settings on record: 10 point dose response, 10 µM ATP. As for the experimental part:
as §1, §2, §3, §4, §5, §6, §7

Assay [12] has as its target T9, HCK (Homo sapiens, UniProt P08631).
T9 construct: purchased Reaction Biology Corporation
Described as above. Type of assay: biochemical. The settings on record: 10 point dose response, 10 µM ATP. The procedure:
as §1, §2, §3, §4, §5, §6, §7

The target in assay [13] is T10, ABL1 (Homo sapiens, UniProt P00519).
T10 construct: purchased Reaction Biology Corporation
The assay is described as above. Type of assay: biochemical. The conditions noted are these: 10 point dose response, 10 µM ATP. As for the experimental part: as §1, §2, §3, §4, §5, §6, §7

In assay [14] the target is T11, ARAF (Homo sapiens, UniProt P10398).
T11 construct: purchased Reaction Biology Corporation
The description is as above. Type of assay: biochemical. The settings on record: 10 point dose response, 10 µM ATP. The procedure: as §1, §2, §3, §4, §5, §6, §7

Assay [15] concerns the target YES1 (Homo sapiens, UniProt P07947). The description is as above. Type of assay: biochemical. Details: purchased Reaction Biology Corporation. The settings on record: 10 point dose response, 10 µM ATP. As for the experimental part: as §1, §2, §3, §4, §5, §6, §7
The target of assay [16] is SRC (Homo sapiens, UniProt P12931). The description is as above. Type of assay: biochemical. Details: purchased Reaction Biology Corporation. The conditions noted are these: 10 point dose response, 10 µM ATP. As for the experimental part: as §1, §2, §3, §4, §5, §6, §7
The target in assay [17] is LCK (Homo sapiens, UniProt P06239). Described as above. Type of assay: biochemical. Details: purchased Reaction Biology Corporation. The settings on record: 10 point dose response, 10 µM ATP. The procedure:
as §1, §2, §3, §4, §5, §6, §7

Assay [18] deals with CSK (Homo sapiens, UniProt P41240). Described as above. Type of assay: biochemical. Details: purchased Reaction Biology Corporation. The settings on record: 10 point dose response, 10 µM ATP. As for the experimental part:
as §1, §2, §3, §4, §5, §6, §7

Assay [19] has as its target ABL2 (Homo sapiens, UniProt P42684). The description is as above. Type of assay: biochemical. Details: purchased Reaction Biology Corporation. The conditions noted are these: 10 point dose response, 10 µM ATP. As for the experimental part:
as §1, §2, §3, §4, §5, §6, §7

Assay [20] addresses LYN (Homo sapiens, UniProt P07948). Described as above. Details: purchased Reaction Biology Corporation. The settings on record: 10 point dose response, 10 µM ATP. Type of assay: biochemical. The procedure: as §1, §2, §3, §4, §5, §6, §7

T4 sequence (P04049 whole entry): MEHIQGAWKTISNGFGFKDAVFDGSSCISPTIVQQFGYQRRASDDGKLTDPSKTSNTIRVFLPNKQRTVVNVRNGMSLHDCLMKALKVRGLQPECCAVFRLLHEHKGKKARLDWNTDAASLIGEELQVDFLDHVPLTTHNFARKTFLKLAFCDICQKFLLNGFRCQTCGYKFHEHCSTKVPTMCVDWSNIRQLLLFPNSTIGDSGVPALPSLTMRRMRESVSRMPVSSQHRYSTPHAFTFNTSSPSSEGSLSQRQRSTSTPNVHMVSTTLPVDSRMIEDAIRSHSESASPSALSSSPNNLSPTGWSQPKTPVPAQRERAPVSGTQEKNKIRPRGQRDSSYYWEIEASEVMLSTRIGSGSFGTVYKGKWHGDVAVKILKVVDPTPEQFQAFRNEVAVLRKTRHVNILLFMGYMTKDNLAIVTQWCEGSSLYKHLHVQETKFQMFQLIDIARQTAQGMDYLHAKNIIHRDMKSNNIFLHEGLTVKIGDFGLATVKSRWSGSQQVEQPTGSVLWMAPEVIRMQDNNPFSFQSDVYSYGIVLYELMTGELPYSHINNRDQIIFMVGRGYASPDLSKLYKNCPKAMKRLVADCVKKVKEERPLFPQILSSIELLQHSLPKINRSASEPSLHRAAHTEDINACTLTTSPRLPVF
T3 sequence (Q06187 whole entry): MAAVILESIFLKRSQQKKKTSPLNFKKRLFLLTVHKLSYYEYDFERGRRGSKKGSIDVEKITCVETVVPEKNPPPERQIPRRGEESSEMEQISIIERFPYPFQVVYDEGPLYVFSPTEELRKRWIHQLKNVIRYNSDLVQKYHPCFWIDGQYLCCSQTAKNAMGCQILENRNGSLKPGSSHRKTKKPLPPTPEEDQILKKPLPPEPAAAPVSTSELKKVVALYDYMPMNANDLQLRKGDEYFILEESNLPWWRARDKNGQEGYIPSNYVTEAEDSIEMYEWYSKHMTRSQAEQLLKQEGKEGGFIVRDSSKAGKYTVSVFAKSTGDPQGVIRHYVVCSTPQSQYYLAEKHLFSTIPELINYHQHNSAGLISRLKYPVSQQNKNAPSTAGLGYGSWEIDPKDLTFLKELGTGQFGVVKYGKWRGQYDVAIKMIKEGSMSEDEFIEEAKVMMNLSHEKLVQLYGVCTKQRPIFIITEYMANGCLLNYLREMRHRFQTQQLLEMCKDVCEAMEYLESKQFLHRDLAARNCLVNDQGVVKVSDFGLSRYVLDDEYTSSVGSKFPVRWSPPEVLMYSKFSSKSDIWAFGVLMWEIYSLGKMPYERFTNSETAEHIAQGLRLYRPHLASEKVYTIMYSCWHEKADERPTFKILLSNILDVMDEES
T7 sequence (P36888 27-993): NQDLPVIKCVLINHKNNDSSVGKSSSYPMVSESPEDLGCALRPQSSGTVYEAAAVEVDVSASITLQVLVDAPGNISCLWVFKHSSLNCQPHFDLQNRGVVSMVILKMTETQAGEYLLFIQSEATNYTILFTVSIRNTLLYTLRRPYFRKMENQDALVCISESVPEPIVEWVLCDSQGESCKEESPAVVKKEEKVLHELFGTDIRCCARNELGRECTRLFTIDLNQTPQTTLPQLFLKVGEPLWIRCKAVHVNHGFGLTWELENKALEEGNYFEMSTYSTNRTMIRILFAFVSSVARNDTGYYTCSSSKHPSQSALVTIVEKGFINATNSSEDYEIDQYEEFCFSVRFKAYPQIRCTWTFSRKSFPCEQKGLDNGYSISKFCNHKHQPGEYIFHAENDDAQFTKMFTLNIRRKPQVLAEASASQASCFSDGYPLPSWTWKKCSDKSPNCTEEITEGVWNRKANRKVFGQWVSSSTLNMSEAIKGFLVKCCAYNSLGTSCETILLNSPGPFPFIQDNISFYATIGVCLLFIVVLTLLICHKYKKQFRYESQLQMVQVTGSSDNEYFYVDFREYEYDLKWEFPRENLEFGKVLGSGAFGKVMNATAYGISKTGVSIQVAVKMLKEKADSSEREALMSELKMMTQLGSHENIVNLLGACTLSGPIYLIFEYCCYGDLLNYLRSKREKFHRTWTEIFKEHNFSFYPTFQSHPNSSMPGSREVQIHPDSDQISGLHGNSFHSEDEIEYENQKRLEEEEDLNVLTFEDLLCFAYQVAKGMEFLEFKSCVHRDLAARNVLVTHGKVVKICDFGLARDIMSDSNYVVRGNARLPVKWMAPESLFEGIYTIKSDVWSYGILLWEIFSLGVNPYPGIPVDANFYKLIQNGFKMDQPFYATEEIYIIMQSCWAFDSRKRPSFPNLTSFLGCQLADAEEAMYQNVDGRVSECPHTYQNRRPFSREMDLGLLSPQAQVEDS
Sequence of CSK (P41240 whole entry): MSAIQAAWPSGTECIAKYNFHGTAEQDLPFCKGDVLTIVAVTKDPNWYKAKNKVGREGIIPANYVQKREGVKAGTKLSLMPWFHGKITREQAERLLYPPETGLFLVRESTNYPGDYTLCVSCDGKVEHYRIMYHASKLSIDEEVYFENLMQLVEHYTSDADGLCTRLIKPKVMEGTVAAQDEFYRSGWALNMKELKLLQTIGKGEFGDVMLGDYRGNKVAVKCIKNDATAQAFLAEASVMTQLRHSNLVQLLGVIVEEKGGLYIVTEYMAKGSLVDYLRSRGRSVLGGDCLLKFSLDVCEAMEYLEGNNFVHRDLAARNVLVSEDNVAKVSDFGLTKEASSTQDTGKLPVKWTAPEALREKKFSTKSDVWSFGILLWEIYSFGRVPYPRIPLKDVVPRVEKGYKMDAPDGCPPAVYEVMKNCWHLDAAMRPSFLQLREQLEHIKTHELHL
T6 sequence (P06241 whole entry): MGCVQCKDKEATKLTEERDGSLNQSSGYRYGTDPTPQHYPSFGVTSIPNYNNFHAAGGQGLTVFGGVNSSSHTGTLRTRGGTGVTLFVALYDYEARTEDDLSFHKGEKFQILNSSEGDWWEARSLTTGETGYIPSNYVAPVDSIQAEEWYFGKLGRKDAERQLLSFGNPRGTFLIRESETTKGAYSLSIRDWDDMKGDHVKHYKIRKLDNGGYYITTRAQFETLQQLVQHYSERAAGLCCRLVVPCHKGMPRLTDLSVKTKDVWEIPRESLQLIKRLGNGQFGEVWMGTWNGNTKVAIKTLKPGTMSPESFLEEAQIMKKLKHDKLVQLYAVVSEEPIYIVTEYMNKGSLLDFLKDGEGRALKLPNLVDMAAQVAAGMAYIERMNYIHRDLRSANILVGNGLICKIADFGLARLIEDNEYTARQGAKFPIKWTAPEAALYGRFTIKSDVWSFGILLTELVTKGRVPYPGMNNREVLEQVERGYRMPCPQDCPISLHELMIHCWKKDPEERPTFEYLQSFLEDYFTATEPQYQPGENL
T11 sequence (P10398 whole entry): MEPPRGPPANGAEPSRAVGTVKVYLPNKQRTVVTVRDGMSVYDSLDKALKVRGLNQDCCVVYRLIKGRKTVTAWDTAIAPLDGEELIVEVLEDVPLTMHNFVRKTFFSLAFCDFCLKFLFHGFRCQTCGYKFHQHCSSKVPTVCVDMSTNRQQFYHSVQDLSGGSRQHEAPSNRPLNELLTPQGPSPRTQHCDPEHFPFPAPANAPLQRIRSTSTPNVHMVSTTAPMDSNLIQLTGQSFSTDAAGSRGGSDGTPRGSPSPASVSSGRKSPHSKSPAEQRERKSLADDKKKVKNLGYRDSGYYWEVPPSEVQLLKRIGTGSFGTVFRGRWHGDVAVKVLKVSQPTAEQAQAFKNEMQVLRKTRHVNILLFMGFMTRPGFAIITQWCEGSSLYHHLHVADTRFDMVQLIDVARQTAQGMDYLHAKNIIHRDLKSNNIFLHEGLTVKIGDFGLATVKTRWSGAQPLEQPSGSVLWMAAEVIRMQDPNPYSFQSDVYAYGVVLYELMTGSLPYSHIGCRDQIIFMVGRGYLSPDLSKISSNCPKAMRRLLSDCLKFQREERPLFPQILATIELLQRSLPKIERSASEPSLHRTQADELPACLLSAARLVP
Sequence of LYN (P07948 whole entry): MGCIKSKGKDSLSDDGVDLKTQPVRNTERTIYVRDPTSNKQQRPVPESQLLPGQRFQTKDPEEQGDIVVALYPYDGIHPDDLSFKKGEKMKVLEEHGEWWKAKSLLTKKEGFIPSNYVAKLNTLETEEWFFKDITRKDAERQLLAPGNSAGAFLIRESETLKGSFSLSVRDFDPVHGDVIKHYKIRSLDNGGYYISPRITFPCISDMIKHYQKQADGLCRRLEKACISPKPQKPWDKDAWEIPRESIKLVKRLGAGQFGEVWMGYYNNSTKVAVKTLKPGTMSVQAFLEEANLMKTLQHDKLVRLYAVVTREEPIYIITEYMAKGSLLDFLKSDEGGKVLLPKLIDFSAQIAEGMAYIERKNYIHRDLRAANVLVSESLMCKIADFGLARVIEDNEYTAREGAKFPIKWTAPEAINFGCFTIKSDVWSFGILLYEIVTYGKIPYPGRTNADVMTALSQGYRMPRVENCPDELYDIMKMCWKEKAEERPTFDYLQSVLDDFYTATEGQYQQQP
Sequence of LCK (P06239 whole entry): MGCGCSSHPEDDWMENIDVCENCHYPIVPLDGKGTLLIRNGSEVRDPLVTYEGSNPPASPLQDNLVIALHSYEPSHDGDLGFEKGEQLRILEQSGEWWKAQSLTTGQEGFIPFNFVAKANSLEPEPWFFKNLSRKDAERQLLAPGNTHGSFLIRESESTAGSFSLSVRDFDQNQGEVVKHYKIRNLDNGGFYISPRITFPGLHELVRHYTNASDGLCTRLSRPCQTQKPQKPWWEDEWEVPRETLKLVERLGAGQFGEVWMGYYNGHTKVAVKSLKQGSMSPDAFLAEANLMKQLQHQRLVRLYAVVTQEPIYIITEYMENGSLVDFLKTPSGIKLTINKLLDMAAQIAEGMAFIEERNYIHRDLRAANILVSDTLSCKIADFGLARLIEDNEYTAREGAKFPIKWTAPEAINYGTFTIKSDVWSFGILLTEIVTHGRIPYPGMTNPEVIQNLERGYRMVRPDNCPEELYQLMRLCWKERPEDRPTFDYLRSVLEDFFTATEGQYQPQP

With `Nc1ncnc2c1c(-c1ccc(Oc3ccccc3)cc1)nn2C[C@@H]1SSC[C@@H]1O` [SAB298, (3S, 4S)-3-((4-amino-3-(4-phenoxyphenyl)-1H-pyrazolo[3,4-d]pyrimidin-1-yl)methyl)-1,2-dithiolan-4-ol], the “Apoptosis (annexin staining and caspase activity)” value in [1] is listed as “induced apoptosis”. The IC50 – broadly, the midpoint of a concentration-inhibition curve – was 1300 to 2900 nM in [2]; above 10 µM in assay [4]; above 10 µM in assay [5]; 78 nM in [6]; 2800 nM in [7]; 35.5 nM in [8]. The IC50 in [9] was determined as 21.7 nM; in assay [10], 71 nM; in [11] it was 7.8 nM; in assay [12], 16.3 nM; in assay [13], 4.14 µM; in assay [14] it was 1200 nM. The IC50 amounted to 0.7 nM in assay [15]; 269 nM in [16]; 7.8 nM in [17]; 139 nM in [18]; 2560 nM in [19]; 137 nM in [20]. Further, the Tumor growth entry in [3] is listed as “significantly suppressed the growth”.

These data come from PMC6481345, “A novel anti-melanoma SRC-family kinase inhibitor” (Oncotarget, 2019).
